Here are results for 1 compound from patent US7537765B2, “Inhibition of HIV-1 replication by disruption of the processing of the viral capsid-spacer peptide 1 protein” (priority 2003, dated 2009).

The test system of data set [1] is NL4-3 A366V/G357S double mutant. Briefly: Virus replication assay of re-engineered NL4-3 mutants in Jurkat T cells (reverse transcriptase activity). In kind it is cell-based, HIV-1. The method, then:
In order to more extensively map the viral genetic determinants for DSB resistance, additional experiments were performed to select for viruses in vitro that are drug resistant. Multiple parallel cultures of Jurkat T cells (5×10^5 each) were transfected with the proviral DNA clone pNL4-3 in the presence or absence of 10-50 ng/ml DSB. The cells were passaged every two days, and fresh drug was added at each passage. Virus replication was monitored by measuring reverse transcriptase activity in culture supernatants. Virus was isolated from culture supernatants harvested at selected timepoints, and genomic DNA was amplified by RT-PCR using primers that spanned the coding region between the N-terminus of CA and the N-terminus of RT. The amplified product was then sequenced using the same set of primers.
In one experiment, an A366V mutation was identified in the SP1 region of NL4-3 virus cultured in the presence of DSB (note: numbering is relative to the Gag polyprotein). Upon further passaging, a double mutant was identified that contained a G357S mutation in CA as well as the A366V mutation in SP1. The A366V mutation was identified previously in experiments selecting for resistant variants of the RF isolate. […] Since serine is present at this position in isolates (such as RF) that are sensitive to DSB, the CA G357S mutation alone is not sufficient to confer resistance to DSB. […]

Data set [2] deals with HIV-2ROD. Put plainly: Gag processing (western blot) in chronically infected H9/HIV-2ROD cells. In kind it is cell-based. The method, then: FIG. 2. […] Gag proteins were visualized using HIV-Ig (HIV-1) or monkey anti-SIVmac251 serum (HIV-2 and SIV; NIH AIDS Research and Reference Reagent Program).
In order to better define DSB's mechanism of action, a detailed examination was undertaken of the virus produced from HIV-1-infected cell lines treated with DSB. Briefly, H9 cells chronically infected with the HIV-1IIIB isolate were treated with DSB at 1 μg/mL for a period of 48 hrs. Indinavir was used as a control. At the 48 hr time-point, spent media was removed and fresh media containing compound was added. At 24, 48 and 72 hrs post fresh compound addition, both cells and supernatant were recovered for analysis. The level of virus in the culture supernatant was determined and western blots were used to characterize viral protein production in both cell-associated and cell-free virus. […] This defect took the form of an additional band in the western blots corresponding to p25 (FIG. 2). This p25 band results from the incomplete processing of the capsid CA-SP1 precursor. […] As discussed above, mutations at the p25 to p24 cleavage site that prevent processing are associated with defects in viral maturation and infectivity (Wiegers K. et al., J. Virol. 72:2846-54 (1998)).

Data set [3] relates to PHA-stimulated PBMC. Briefly: Toxicity in PHA-stimulated PBMC, XTT method. In kind it is cell-based. The settings on record: 7 days. The method, then: Toxicity of DSB was analyzed by incubating with PHA-stimulated PBMC for 7 days at a range of concentrations, then determining cell viability using the XTT method. The 50% cytotoxic concentration was >30 μM, corresponding to an in vitro therapeutic index of approximately 5000.

In data set [4] the test system is HIV. The conditions noted are these: chronically-infected cells, Kanamoto et al.; cited from earlier work.
Data set [5] deals with NNRTI-resistant HIV-1 isolates. Briefly: NNRTI-resistant HIV-1 isolates in MT-2 cells, cell viability (XTT) endpoint. In kind it is cell-based. The conditions noted are these: X4, MT-2 cells, read-out: IC50. The method, then:
(§1) The activity of DSB was tested against a panel of HIV-1 isolates resistant to approved drugs. These viruses were obtained from the NIH AIDS Research and Reference Reagent Program. Assays were performed using virus propagated in PBMCs with a p24 endpoint (above), or using cell line targets (MT-2 cells) and a cell killing endpoint. The MT-2 assay format was as follows. Serial dilutions of DSB, or each approved drug, were prepared in 96 well plates. To each sample well was added media containing MT-2 cells at 3×10^5 cells/mL and virus inoculum at a concentration necessary to result in 80% killing of the cell targets at 5 days post-infection (PI). On day 5 post-infection, virus-induced cell killing was determined by the XTT method and the inhibitory activity of the compound was determined.
In general terms: Formazan colour is commonly taken as a measure of viable cells.

Data set [6] has as its system drug resistant HIV-1 isolates. Put plainly: Drug resistant HIV-1 isolates in fresh PBMC, p24 endpoint. In kind it is cell-based. The conditions noted are these: read-out: IC50. The method, then: A robust virus inhibition assay was used to evaluate the anti-viral activity of DSB against primary HIV-1 isolates propagated in PMBC. Briefly, serial dilutions of DSB were made in medium into 96-well tissue culture plates. 25-250 TCID50 of virus and 5×10^5 PHA-stimulated PBMCs were added to each well. On days 1, 3 and 5 post-infection, media was removed from each well and replaced with fresh media containing DSB at the appropriate concentration.
as §1

Data set [7] addresses HIV-1 protease (Human immunodeficiency virus type 1 group M subtype B, UniProt P12497). Put plainly: Cell-free fluorometric protease assay, synthetic peptide substrate. In kind it is biochemical. Further details: DSB had no effect on HIV-1 protease function using a cell-free fluorometric assay. The settings on record: concentrations up to 50 μg/mL. The method, then: It was previously determined that DSB had no effect on HIV-1 protease function using a cell-free fluorometric assay that characterized enzyme activity by following the cleavage of a synthetic peptide substrate. […] As a result of the observation that DSB blocks virus replication at a late step, studies were also performed using a recombinant form of the Gag protein, which is a more relevant system than the synthetic peptide substrate used in the initial assays.

Read-outs that look alike come from different tables or passages of the source. Where only a bound is given, the exact number is not on record here.

In general, IC50 refers to the concentration that gives 50% inhibition. As for `C=C(C)[C@@H]1CC[C@]2(C(=O)O)CC[C@]3(C)[C@H](CC[C@@H]4[C@@]5(C)CC[C@H](OC(=O)CC(C)(C)C(=O)O)C(C)(C)[C@@H]5CC[C@]43C)[C@@H]12` [DSB, 3-O-(3′,3′-dimethylsuccinyl)betulinic acid], in data set [1], the virus replication entry is on record as “replicated efficiently in the absence or presence of DSB”. Further, the antiviral activity result in data set [2] (HIV-2) is reported as “lack of antiviral activity”. Further, the Gag processing result in data set [2] (HIV-2 chronically infected cell line, 1 μg/mL) is listed as “normal Gag processing”. Moreover, the 50% cytotoxic concentration in data set [3] is greater than 30 µM. In data set [4], the release of virus result is “inhibits release of virus from chronically-infected cells”. Moreover, the half-inhibitory concentration (IC50) in data set [5] (isolate 3, NNRTI-resistant, Y181C) is 1 nM; in data set [5] (isolate 4, NNRTI-resistant, K103N Y181C), 1.3 nM; in data set [6] (isolate 1, NRTI-resistant, K70R T215Y/F, R5/X4), 4.4 nM; in data set [6] (isolate 2, NRTI-resistant, K70R T215Y/F, R5/X4), 4.2 nM; in data set [6] (isolate 5, Protease-resistant, V82A, X4) it was 5.6 nM; in data set [6] (isolate 6, Protease-resistant, I84V, X4) it was 5.5 nM. Moreover, the 50% inhibitory concentration (IC50) in data set [6] (isolate 7, Protease-resistant, L10R/M46I/L63P/V82T/I84V, X4) came out at 12.9 nM. Moreover, the “effect on HIV-1 protease function” value in data set [7] was “no effect on protease function”.
